Laboratory results from patent publication US20230330019A1, “EMULSION FORMULATIONS OF POORLY WATER-SOLUBLE COMPOUNDS” (priority 2022, published 2023).
≈ marks a conversion by molar mass, not a printed value. Read-outs that look alike come from different tables or passages of the source.

Assays:
[1] = cited from earlier work
Janus kinase 3 (JAK3) = target: T1, Janus kinase 3 (JAK3) (Homo sapiens, UniProt P52333); settings: cited from earlier work
T1 sequence (P52333 1-1124): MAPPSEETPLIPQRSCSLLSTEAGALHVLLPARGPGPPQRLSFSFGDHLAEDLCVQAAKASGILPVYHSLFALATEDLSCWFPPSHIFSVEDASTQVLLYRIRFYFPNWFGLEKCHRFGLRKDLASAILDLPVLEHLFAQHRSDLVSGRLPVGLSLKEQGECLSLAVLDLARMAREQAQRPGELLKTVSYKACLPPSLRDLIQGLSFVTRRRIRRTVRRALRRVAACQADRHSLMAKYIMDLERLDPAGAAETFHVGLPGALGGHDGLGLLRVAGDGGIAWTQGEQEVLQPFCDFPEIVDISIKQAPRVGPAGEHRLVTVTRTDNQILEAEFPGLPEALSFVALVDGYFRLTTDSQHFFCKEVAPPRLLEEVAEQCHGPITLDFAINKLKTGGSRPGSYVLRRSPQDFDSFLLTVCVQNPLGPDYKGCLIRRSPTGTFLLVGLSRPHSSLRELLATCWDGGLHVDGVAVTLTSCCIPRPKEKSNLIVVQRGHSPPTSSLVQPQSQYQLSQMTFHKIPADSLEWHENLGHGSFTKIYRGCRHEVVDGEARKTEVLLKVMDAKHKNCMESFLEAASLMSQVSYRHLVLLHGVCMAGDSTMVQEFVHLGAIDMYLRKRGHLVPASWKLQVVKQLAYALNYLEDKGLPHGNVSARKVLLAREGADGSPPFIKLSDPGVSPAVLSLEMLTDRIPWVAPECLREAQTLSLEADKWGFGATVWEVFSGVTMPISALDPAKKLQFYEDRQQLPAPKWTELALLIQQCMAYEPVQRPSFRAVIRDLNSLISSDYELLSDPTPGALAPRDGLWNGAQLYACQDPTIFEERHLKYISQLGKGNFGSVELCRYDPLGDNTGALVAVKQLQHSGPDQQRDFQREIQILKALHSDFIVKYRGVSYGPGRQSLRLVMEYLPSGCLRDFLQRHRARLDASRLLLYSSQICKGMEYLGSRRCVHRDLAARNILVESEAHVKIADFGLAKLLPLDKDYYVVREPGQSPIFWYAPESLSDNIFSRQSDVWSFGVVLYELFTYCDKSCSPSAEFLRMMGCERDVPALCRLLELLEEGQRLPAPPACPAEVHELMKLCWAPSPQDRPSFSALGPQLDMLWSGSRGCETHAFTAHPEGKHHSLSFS

[2] = Water solubility of exemplified compounds, USP solubility definition; assay type: physicochemical
Text: “Solubility” generally refers to the degree to which a substance dissolves in a solvent to make a solution (usually expressed as grams of solute per liter of solvent). Solubility of one fluid (liquid or gas) in another may be complete (totally miscible; e.g., methanol and water) or partial (e.g., oil and water dissolve only slightly). In general, “like dissolves like” (e.g., aromatic hydrocarbons dissolve in each other but not in water). Solubility is the ability of a solid, liquid, or gaseous chemical substance (referred to as the solute) to dissolve in a solvent (usually a liquid) and form a solution. The solubility of a substance depends on the types of solvent used, their polarity, and the temperature and pressure to which they are subjected. The solubility of a substance in a particular solvent is measured by the concentration of the saturated solution. A solution is considered saturated when adding additional solute no longer increases the concentration of the solution. The degree of solubility ranges widely depending on the substances, from infinitely soluble (fully miscible), such as ethanol in water, to poorly soluble, such as silver chloride in water. The term “insoluble” is often applied to poorly soluble compounds. Under certain conditions, the equilibrium solubility can be exceeded, yielding a supersaturated solution.
“Poorly water-soluble chemical compounds”: The United States Pharmacopeia (USP) designates the solubility of drugs as parts of solvent required for one part solute. […] The USP lists the solubility of a drug as the quantity of milliliters of solvent in which 1 g of solute will dissolve and assigns a descriptive term in the summary provided below.

[3] = Solubility screening panel in DEGEE; assay type: physicochemical
Text: Fisetin, trans-resveratrol, and milk thistle extract (comprising silymarin) were all found to be soluble in DEGEE in a solubility screening panel evaluating surfactants and other emulsifiers for use in topical delivery. An initial objective was to find a suitable miscible oil for use in hair applications, such as argan, sesame, sunflower, fractionated coconut, and grape seed oils. […] The next step was to evaluate oil soluble emulsifiers, such as glyceryl oleate, sorbitan oleate, lauryl oleate, and lauryl sulfate. […] Oleic acid (a fatty acid) is known to be miscible with DEGEE, but it is a […] fatty acid, which makes it an unfavorable choice for use in a long-term topical dosing formulation. Oleic acid was evaluated with a mixture of sorbitan laurate, polyglyceryl-4 laurate, and dilauryl citrate. This formulation made a miscible mixture with fisetin, trans-resveratrol, and milk thistle dissolved in DEGEE. However, the dilution of the mixture with water created a suspension, and once again, the solids precipitated out after approximately one hour.

[4] = cited from earlier work; remark: listed apart in the source
[5] = cited from earlier work; remark: listed apart in the source
[6] = cited from earlier work; remark: listed apart in the source

Row | Molecule | Definition (USP solubility descriptive term) ([2]; water) | mass_water/mass_solute ([2]; water) | solubility in DEGEE [3] | reported aqueous solubility [5] | Water Solubility [5] [µg/mL] | other results
1 | O=C(O[C@@H]1Cc2c(O)cc(O)cc2O[C@@H]1c1cc(O)c(O)c(O)c1)c1cc(O)c(O)c(O)c1 [EGCG, [(2R,3R)-5,7-dihydroxy-2-(3,4,5-trihydroxyphenyl)chroman-3-yl]3,4,5-trihydroxybenzoate] | – | – | – | – | – | time at which blood levels peak ([1]; after consumption (oral)): ≤ 1.7 h; time by which majority of unchanged EGCG is excreted into the urine ([1]; from almost immediately): ≤ 8 h; absorbed plasma half-life ([1]; oral): about 5 hours
2 | C/C=C(/C)C(=O)O[C@H]1[C@@H]2[C@H](C)C(=O)O[C@@H]2C[C@@H](C)[C@@H]2C=CC(=O)[C@]21C [Brevilin A] | – | – | – | – | – | inhibition of JAK3 (Janus kinase 3 (JAK3)): inhibit
3 | Oc1ccc(/C=C/c2cc(O)cc(O)c2)cc1 [trans-Resveratrol, 5-[(E)-2-(4-hydroxyphenyl)ethen-1-yl]benzene-1,3-diol] | practically insoluble | 33,333 | soluble | about 0.03 mg/mL | – | half-life ([4]; in vivo): about 15 min; bioavailability ([4]; oral): about 0.5%
4 | O=C1c2c(O)cc(O)cc2O[C@H](c2ccc(O)c(O)c2)[C@H]1O [Dihydroquercetin] | very slightly insoluble | 2,500 | – | – | 400 | –
5 | O=c1c(O)c(-c2ccc(O)c(O)c2)oc2cc(O)ccc12 [Fisetin, 2-(3,4-dihydroxyphenyl)-3,7-dihydroxy-4H-1-benzopyran-4-one] | practically insoluble | 100,000 | soluble | about 0.01 mg/mL | 10 | log P [6]: 3.2; aqueous solubility ([5]; literature): 10.45 µg/mL (≈ 36.5 µM)
6 | Silymarin | – | – | – | – | – | Definition (USP solubility descriptive term) [2]: very slightly insoluble; mass_water/mass_solute [2]: 2,500
